According to PubChem BioAssay AID1508591:

Settings: rat; liver microsomes; pH 7.4; 15.0 min; 1.0 µM

Going from `COc1cccc(CNc2ccc(S(=O)(=O)Nc3ccc(C4CCNCC4)cc3)cc2)c1O` to `O=S(=O)(Nc1ccc2ccccc2c1)c1ccc(NCc2ccc(Br)cc2O)cc1`, the half-life falls from 29 min to 15 min (1.9-fold).

`O=C(CCc1ccccc1)Nc1ccc(S(=O)(=O)Nc2nccs2)cc1` and `O=C(Cc1ccc2ccccc2c1)Nc1ccc(S(=O)(=O)Nc2nccs2)cc1` cannot be ordered by half-life: greater than 30 min for the first, greater than 30 min for the second.

First: O=c1c(-c2ccc(O)cc2)coc2cc(O)cc(O)c12
Second: COC(=O)CNC(=O)c1nc(-c2ccc(F)cc2)c2ccccn12
The half-life of the first is higher: greater than 30 min for the first, 0.91 min for the second.

`COc1ccc(NC(=O)c2c(C)cccc2C)cc1[S+](=O)([O-])N(C)C` and `COc1ccc(NC(=O)c2cc(-c3ccc[nH]3)n[nH]2)cc1OC` cannot be ordered by half-life: greater than 30 min for the first, greater than 30 min for the second.

Compared with `O=C(Nc1nnc(-c2ccco2)o1)c1ccc(Cl)cc1`, `O=C(Nc1nnc(-c2cccs2)o1)c1ccc(Cl)cc1` is 3.7-fold lower in half-life: 10.8 min for the first, 2.9 min for the second.

Going from `N#Cc1nc(-c2cccc3ccccc23)oc1Nc1ccccc1` to `N#Cc1ccccc1Nc1ncc(-c2cccc3ccccc23)o1`, the half-life falls from greater than 30 min to 5.8 min.

Compared with `CCOc1ccc(NC(=O)c2ccc(F)c(S(=O)(=O)N(CC)Cc3ccccc3)c2)cc1`, `CCOc1ccc(/C=C/c2nc3ccccc3n2S(=O)(=O)c2cccc(Cl)c2)cc1` is higher in half-life: 1.3 min for the first, greater than 30 min for the second.

Compared with `CCCCCCOc1ccc(OC(=O)c2ccncc2)cc1`, `CCOC(=O)c1ccc(N2C(=O)c3n[nH]c(-c4cccs4)c3C2c2ccc(OCC)cc2)cc1` (stereo not drawn) is 2.5-fold higher in half-life: 2.32 min for the first, 5.72 min for the second.

Going from `CC(=O)c1c(C)[nH]c(C(=O)Nc2cccc(S(=O)(=O)N3CCCCCC3)c2)c1C` to `CC(=O)c1c(C)[nH]c(C(=O)Nc2cccc([S+](=O)([O-])Nc3cccnc3)c2)c1C`, the half-life rises from 1.6 min to 17 min (11-fold).

`Cc1nnc2n1-c1ccc(Cl)cc1C(c1ccccc1)=NC2` and `Cn1cc(-c2nc(Nc3ccc(F)c(F)c3)c3ccccc3n2)cn1` are within 1.5-fold of each other in half-life: 21.2 min for the first, 21 min for the second.

`Clc1ccc(C2=Nn3c(nnc3-c3ccncc3)SC2)cc1` and `COc1cc(Nc2nc(-c3ccncc3)nc3ccccc23)ccc1F` are within 1.5-fold of each other in half-life: 9.1 min for the first, 7.35 min for the second.

`COc1ccc2[nH]c3c(c2c1)CCNC31CCN(S(=O)(=O)c2c(C)noc2C)CC1` and `COc1ccc2[nH]c3c(C)c4ccncc4c(C)c3c2c1` cannot be ordered by half-life: greater than 30 min for the first, greater than 30 min for the second.

First: O=C(Cn1ccn2nc3c(c2c1=O)CCCCC3)Nc1ccc2c(c1)OCO2
Second: COc1cc(O)c([C@H](CC(=O)N2CC(C)CC(C)C2)c2ccc3c(c2)OCO3)c(OC)c1 (stereo partly drawn)
The half-life of the first is 2.1-fold higher: 6.81 min for the first, 3.3 min for the second.

Compared with `O=C(Nc1ccc(S(=O)(=O)Nc2nc(-c3ccccc3)cs2)cc1)c1ccc2ccccc2c1`, `N#Cc1ccccc1S(=O)(=O)Nc1cnccc1C(=O)Nc1nc(-c2ccccc2)cs1` is lower in half-life: greater than 30 min for the first, 7 min for the second.

First: Cc1ccc(NS(=O)(=O)c2ccc3c(c2)NC(=O)CO3)cc1C
Second: Cc1ccc(NS(=O)(=O)c2cc3c(cc2N[C@H](C)CO)NC(=O)CC3)cc1C
The half-life of the first is 1.8-fold higher: 3.13 min for the first, 1.71 min for the second.

`COc1ccc(-c2ccc(Nc3nc(-c4ccncc4)nc4ccccc34)cc2F)cc1F` and `Cc1noc(C)c1-c1ccc(Nc2nc(-c3ccncc3)nc3ccccc23)cc1F` are within 1.5-fold of each other in half-life: 11 min for the first, 10 min for the second.

First: CCCc1cc(C)[nH]c(=O)c1CNC(=O)c1cc(-c2ccc(N3CCN(C(C)C)CC3)nc2)cc2c1cnn2C(C)C
Second: COc1ncccc1-c1cc2[nH]ccc2c(C(=O)NCc2c(C)cc(C)[nH]c2=O)n1
The half-life of the first is 4.6-fold higher: 25 min for the first, 5.48 min for the second.

Going from `Nc1ncnc(N2CCc3ccccc32)c1[N+](=O)[O-]` to `Nc1ncnc2c1C(=O)N(c1ccc(C3CCC(CC(=O)O)CC3)cc1)CCO2` (stereo not drawn), the half-life rises from 8.6 min to greater than 30 min.

`COc1ccc(-n2nc(C3CCCN(C(=O)Nc4ccccc4)C3)[nH]c2=O)cc1` (stereo not drawn) and `CC(=O)N1CCC(NC(=O)c2nc(-c3ccccc3)cc3[nH]ccc23)CC1` cannot be ordered by half-life: greater than 30 min for the first, greater than 30 min for the second.

Compared with `C[S+](=O)([O-])N1CCC(Cn2ccc3c(N4CCOCC4)nc(-c4cccc5[nH]ccc45)cc32)CC1`, `Cc1ccc(N2CCC(CNc3nc(-c4ccccc4C(C)C)ncc3F)CC2)cn1` is 6.6-fold lower in half-life: 15.9 min for the first, 2.4 min for the second.

Going from `CCCN(CCC)CCc1cccc2c1CC(=O)N2` to `CCCN(C(=O)c1sc2nc3n(c(=O)c2c1C)CCCC3)c1ccccc1C`, the half-life falls from 2.96 min to 1.36 min (2.2-fold).

`CNC(=O)C1CCN(C(=O)c2ccc(-c3ncc4cnc(-c5ccccc5)cn34)cc2)CC1` and `O=C(Nc1ccccc1-c1cn2c(CN3CCNCC3)csc2n1)c1cnc2ccccc2n1` cannot be ordered by half-life: greater than 30 min for the first, greater than 30 min for the second.

Going from `CC(C)OC(=O)c1ccnc2cc(C(OCCN3CCCCC3)c3ccccc3Cl)sc12` (stereo not drawn) to `CCOC(=O)c1ccnc2cc(C(OCCN3CCCCC3)c3ccccc3Cl)sc12` (stereo not drawn), the half-life falls from 4.49 min to 2.34 min (1.9-fold).

Compared with `O=C(Nc1cccc(Cc2ccccc2)n1)c1ccc(-c2cccc([N+](=O)[O-])c2)o1`, `COc1cccc(S(=O)(=O)Nc2cnccc2C(=O)Nc2nc(-c3ccccc3)cs2)c1` is 3.9-fold higher in half-life: 1.7 min for the first, 6.7 min for the second.

`Cn1c(=O)c2c(nc(Cl)n2Cc2ccc(Cl)cc2)n(C)c1=O` and `O=c1n(-c2ccc(Cl)cc2)nc2n1CCN(Cc1ccc(C(F)(F)F)cc1)C2` cannot be ordered by half-life: greater than 30 min for the first, greater than 30 min for the second.

First: O=S(=O)(Nc1cccc(C(F)(F)F)c1)c1ccc(NS(=O)(=O)c2ccc3c(c2)OCCO3)cc1
Second: O=S(=O)(Nc1nc2ccccc2s1)c1ccc(NCc2ccc(Br)cc2O)cc1
The half-life of the first is lower: 20 min for the first, greater than 30 min for the second.

Compared with `Cc1ccnc(NC(=S)N2CCC(c3cccc(C(F)(F)F)c3)CC2)c1`, `FC(F)(F)c1cccc(N2CCN(C(=S)Nc3ccccn3)CC2)c1` is 1.5-fold lower in half-life: 24 min for the first, 15.5 min for the second.

First: Cc1cnc(CNc2nc(-c3ccccc3Cl)nc3ccccc23)cn1
Second: Cc1ccccc1-c1nc(NCc2cccs2)c2ccccc2n1
The half-life of the first is 7.3-fold higher: 20 min for the first, 2.74 min for the second.

Going from `CN1CC(CNC(=O)OCc2ccccc2)C[C@H]2c3cccc4c3c(cn4C)CC21` (stereo partly drawn) to `CC(C)Oc1ccc(-c2ccc(=O)n(CC(=O)NCCc3ccccc3)n2)cc1`, the half-life falls from 14.3 min to 1.6 min (8.9-fold).

`Cn1ccc2cc(-c3csc(N4CCC(C(N)=O)CC4)n3)ccc21` and `NC(=O)C1CCN(c2nc(-c3cccc(F)c3)cs2)CC1` are within 1.5-fold of each other in half-life: 2.09 min for the first, 1.95 min for the second.

Going from `Cc1n[nH]c(C)c1CCc1nc2c3ccccc3nc(SCC(=O)Nc3ccc(F)cc3)n2n1` to `Fc1ccc(Nc2nc(-c3ccccc3)nc3ccccc23)cc1F`, the half-life rises from 2.67 min to greater than 30 min.

Going from `O=C(COC(=O)CCC(=O)c1cccs1)NCc1ccco1` to `Cc1ccc(S(=O)(=O)N[C@@H](Cc2ccccc2)C(=O)CCl)cc1`, the half-life rises from 1 min to 2.36 min (2.4-fold).

Going from `O=C(Nc1ncc([S+](=O)([O-])N2CCOCC2)s1)c1cccc(Br)c1` to `CC(=O)NC1CCN(c2nc(-c3ccc(Br)cc3)cs2)CC1`, the half-life rises from 23 min to greater than 30 min.

`COC(C)(C)CCn1nc(Nc2c(C)cccc2C)c2cnc(Nc3ccc(OCCN4CCCC4)c(F)c3)nc21` and `Cc1cccc(C)c1Nc1c(-c2cccs2)nc2ncccn12` are within 1.5-fold of each other in half-life: 3.28 min for the first, 3.72 min for the second.

First: Cc1ccc(Nc2nc(C)c(NC(=O)c3ccc(C)cc3)c(Nc3ccc(C)cc3)n2)cc1
Second: CC(=O)Nc1ccc(N[S+](=O)([O-])c2cccc(NC(=O)c3[nH]c(C)c(C(C)=O)c3C)c2)cc1
The half-life of the first is lower: 20.1 min for the first, greater than 30 min for the second.

Compared with `O=C(NCCc1ccccn1)C1CC(=O)N(c2n[nH]c3cc(Br)ccc23)C1` (stereo not drawn), `CCOc1ccc(CCNC(=O)c2cc3cccnc3n2Cc2cccc(C)n2)cc1OCC` is 17-fold lower in half-life: 29.7 min for the first, 1.7 min for the second.

`CN1CCN(c2ccc(Nc3c4ccccc4nc4ccccc34)cc2)CC1` and `CC(C)c1ccc(Nc2c(-c3ccccn3)nc3ccccn23)cc1` are within 1.5-fold of each other in half-life: 1.72 min for the first, 2.1 min for the second.

Going from `COc1ccc(C)cc1-n1nnnc1Sc1ncnc2scc(-c3ccc(Br)cc3)c12` to `COc1cccc(C(=O)Nc2nc(-c3nnn(-c4ccccc4C(F)(F)F)c3C)ns2)c1`, the half-life rises from 2.1 min to greater than 30 min.

First: O=S(=O)(Nc1nccs1)c1ccc(NCc2cc(Cl)ccc2O)cc1
Second: O=S(=O)(c1ccc(Cl)cc1)c1ccccn1
The half-life of the first is lower: 11 min for the first, greater than 30 min for the second.

Going from `Cc1cc(-c2nnc3n2CCCCC3)c(C)n1-c1ccc(C(C)(C)C)cc1` to `Cc1ccc(C)n1-c1cccc(C(=O)O)c1`, the half-life rises from 1.9 min to 12 min (6.3-fold).

Going from `O=C(c1ccncc1)N1CCC2(CCCN(C(c3ccccc3)c3ccccc3)C2)CC1` to `FC1(F)CCN(c2nc(-c3ccncc3)nc3ccccc23)CC1`, the half-life rises from 2.2 min to 9.4 min (4.3-fold).

First: O=S(=O)(Nc1ccccc1N1CCCCC1)c1ccc(Cl)s1
Second: O=C(Nc1nc(-c2ccccc2)cs1)c1ccncc1NS(=O)(=O)c1ccc(F)cc1Cl
The half-life of the first is 9.4-fold lower: 2.02 min for the first, 19 min for the second.

Going from `Cc1cccc(C)c1NC(=O)c1nc(SC(C)C)ncc1Cl` to `Cc1ccc(NC(=O)CSc2ncc(S(=O)(=O)c3ccc(C(C)C)cc3)c(=O)[nH]2)cc1C`, the half-life rises from 1.38 min to 4.98 min (3.6-fold).

`CCc1ccc(C2Sc3ccccc3NC3=C2C(=O)c2ccccc23)cc1` (stereo not drawn) and `Cc1ccc(CNc2nc(-c3ccccc3C(F)(F)F)nc3ccccc23)s1` are within 1.5-fold of each other in half-life: 1.81 min for the first, 1.7 min for the second.

Compared with `CCn1c(SCc2ccc(C#N)cc2)nnc1-c1cccc(Cl)c1`, `Cc1ccc(SC2=NS(=O)(=O)c3ccccc32)c(C)c1` is 1.9-fold lower in half-life: 3 min for the first, 1.54 min for the second.

Compared with `COc1cc2nccc(Oc3ccc(NC(=O)C4(C(=O)Nc5ccc(F)cc5)CC4)cc3)c2cc1OC`, `COc1cccc(C(=O)NCCSc2c(-c3ccc(F)cc3)[nH]c3ccccc23)c1OC` is lower in half-life: greater than 30 min for the first, 1.26 min for the second.

`CCCc1cc(=O)oc2c3c(c4c(c12)OC(C)(C)C=C4)OC(C)C(C)C3O` (stereo not drawn) and `CC1(C)CC(=O)C2=C(C1)NC(Nc1nc3ccccc3o1)=NC2c1ccccc1Cl` (stereo not drawn) are within 1.5-fold of each other in half-life: 13.2 min for the first, 11 min for the second.

First: C[C@@H]1[C@@H](CC(C[C@H]2O[C@@H]3O[C@]4(C)CC[C@@H]5[C@H](C)CC[C@@H]([C@H]2C)[C@@]35OO4)C(=O)NCc2ccc(F)cc2)O[C@@H]2O[C@]3(C)CC[C@H]4[C@H](C)CC[C@@H]1[C@@]24OO3 (stereo partly drawn)
Second: COc1ccc(C(=O)NC2CCN(c3cnn(CC4CC4)c(=O)c3)CC2)cc1
The half-life of the first is lower: 2.4 min for the first, greater than 30 min for the second.

Going from `COC[C@@H]1CN(C(=O)c2nn(C)c3ccccc23)C[C@H]1c1nc(C)no1` to `COc1cccc(-c2nc(-c3c(C)noc3C)cc3[nH]c(C)cc23)c1OC`, the half-life falls from 25.7 min to 10.2 min (2.5-fold).

First: CC(C)c1ccccc1-c1ncc(F)c(NC(C)(C)c2ccc(-c3cccnc3)cc2)n1
Second: Cc1cn(-c2cc(NC(=O)c3ccc(C)c(Nc4nccc(-c5cccnc5)n4)c3)cc(C(F)(F)F)c2)cn1
The half-life of the first is lower: 2.3 min for the first, greater than 30 min for the second.

First: Cc1ccc(NC(=O)N2CCN(c3nc(N)nc4sc(-c5cccnc5)nc34)CC2)cc1
Second: NC(=O)c1cnc(N[C@@H]2CCCC[C@@H]2N)nc1Nc1cccc(-n2nccn2)c1
The half-life of the first is lower: 17.1 min for the first, greater than 30 min for the second.

For `Cc1ccc2nc(-c3ccccn3)c(Nc3ccccc3C)n2c1`, the half-life was 12.2 min.
